Reference: patent US10301286B2, “Piperazine derivative” (Astellas Pharma Inc., priority 2015, dated 2019)
Structures can show the parent of a compound that is named as a salt.

Columns and labels:
human MC3 receptor = human MC3 receptor (Homo sapiens (Human), UniProt P41968); assay: Human MC receptor activation, cAMP production in cells expressing human MC3 receptor; assay type: cell-based; details: FreeStyle 293-F cells transiently expressing human MC3 receptor, α-MSH maximum = 100%
Excerpt: (§1) (1) Construction of Human MC Receptor-Expressing Vector
(§2) A human MC4 receptor gene (GenBank Accession No.: NM_005912.2), a human MC1 receptor gene (GenBank Accession No.: NM_002386.3), or a human MC3 receptor gene (GenBank Accession No.: NM_019888.3) was introduced into an expression vector pcDNA™ 3.1/V5-His TOPO (registered trademark) (Thermo Fisher Scientific Inc.).
(§3) (2) Construction of Cells Transiently Expressing Human MC Receptor
(§4) An expression vector for a human MC4, MC1, or MC3 receptor was introduced into FreeStyle™ 293-F cell (Thermo Fisher Scientific Inc., product number: R790-07). For the introduction, electroporation was employed. That is, 1×10^7 FreeStyle™ 293-F cell were suspended in 80 μL of an electroporation buffer (Thermo Fisher Scientific Inc., product number: B201-100), and 20 μg of the expression vector was added thereto. The resultant was put into a cuvette (OC-100 Processing Assembly, MaxCyte, Inc.) and electroporated with MaxCyte SIX (registered trademark) (MaxCyte, Inc.). The cells were cultured over one day, suspended in a Cell Banker (registered trademark) 1 (JUJI FIELD Inc.), product number: BLC-1), and stored frozen until their use.
(§5) (3) Measurement of Amount of cAMP Produced
(§6) Measurement was carried out by using a LANCE (registered trademark) Ultra cAMP Kit (PerkinElmer, Inc.) in accordance with the attached instructions. That is, after dissolution in DMSO, the test compound (a final concentration of 1 pM to 30 μM) diluted with an assay buffer (Hank's balanced salt solution, 5 mM 4-(2-hydroxyethyl)-1-piperazineethanesulfonic acid (HEPES), 0.5 mM 3-isobutyl-1-methylxanthine (IBMX), 0.1% bovine serum albumin, pH 7.4), or α-MSH (Bachem Inc., a final concentration of 1 pM to 30 μM) was added to OptiPlate-384 (PerkinElmer, Inc.). Furthermore, a suspension of cells transiently expressing the human MC4, MC1, or MC3 receptor prepared by using the assay buffer was added thereto at 1,000 cells/well, followed by being left to stand at room temperature for about 1 hour. Thereafter, an Eu-cAMP tracer solution and an ULight™-anti-cAMP solution were added thereto, followed by being left to stand at room temperature for about 1 hour. The amount of cAMP was calculated using EnVision (registered trademark) (PerkinElmer Inc.).
(§7) For the agonistic activity, an efficacy (EC50 (μM)) was calculated by a non-linear regression method with a Sigmoid-Emax model, by defining the maximum reaction with α-MSH as 100% and the reaction with the vehicle alone as 0%, respectively.

[1] = system: Male Sprague Dawley (SD) rats; assay: Action on drug-induced voiding dysfunction model rat; assay type: in vivo; details: po, administered into the stomach, atropine sulfate + midodrine hydrochloride model, inhibition of decrease in voiding efficiency or increase of residual urine, P<0.05, read-out: Minimum effective dose
Excerpt: Male Sprague Dawley (SD) rats (Japan SLC, Inc.) were anesthetized with isoflurane and a cannula was placed in bladder, the stomach, and the jugular vein. Then, the rats were awakened in a Ballman cage (Natsume Seisakusho Co., Ltd.). After a post-operative stabilization period, physiological saline was continuously infused into the bladder by an infusion pump (Terumo Corporation, product number: TE-331S) to induce voiding. Infusion of the physiological saline was stopped at the time of voiding, and the amount of the voided urine was measured using an electronic top-loading balance placed under the Ballman cage. After completion of voiding, the residual urine was collected by gravity through the cannula placed in the bladder, and weighed, and the weight was defined as the amount of the residual urine. Further, the intravesical pressure was measured by a pressure transducer (Nihon Kohden Corporation, product numbers: TP-400, TDX-100) through the bladder cannula. The test compound or the vehicle was administered into the stomach, and atropine sulfate (Sigma-Aldrich, Inc., 0.01 mg/kg), which is an anticholinergic drug, and midodrine hydrochloride (Sigma-Aldrich, Inc., 0.3 mg/kg), which is an α1 adrenergic receptor stimulant, were administered intravenously to induce voiding dysfunctions. The voiding efficiency (=[voided amount/(voided amount+amount of residual urine)]×100) and the amount of the residual urine before and after administration of the test compound or the vehicle were measured, and the amount changed was evaluated. The value with vehicle administration and the value with the test compound administration were compared in a Dunnett's multiple comparison test with a statistically significant difference (P<0.05), and the minimum dose at which the inhibitory effect on a decrease in voiding efficiency or an increase of the amount of residual urine had been observed was defined as a minimal effective dose (3 to 12 animals per group).

human MC4 receptor = human MC4 receptor (Homo sapiens (Human), UniProt P32245); assay: Human MC receptor activation, cAMP production in cells expressing human MC4 receptor; assay type: cell-based; details: FreeStyle 293-F cells transiently expressing human MC4 receptor, α-MSH maximum = 100%
Sequence of human MC4 receptor (P32245 whole entry): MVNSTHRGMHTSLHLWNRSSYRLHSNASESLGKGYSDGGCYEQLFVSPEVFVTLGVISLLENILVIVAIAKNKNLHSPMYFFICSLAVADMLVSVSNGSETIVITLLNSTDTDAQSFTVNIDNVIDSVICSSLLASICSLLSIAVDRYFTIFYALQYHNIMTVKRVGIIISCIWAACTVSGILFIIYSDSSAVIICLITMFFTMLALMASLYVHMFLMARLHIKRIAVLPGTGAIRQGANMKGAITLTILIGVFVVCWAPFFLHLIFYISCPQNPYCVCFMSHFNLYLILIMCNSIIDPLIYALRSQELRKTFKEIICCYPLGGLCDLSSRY
Excerpt: as §1, §2, §3, §4, §5, §6, §7

Male Wistar rats = assay: Action on rat urethral pressure (phenylephrine-induced increase); assay type: in vivo; details: anesthetized rats, intravenous, dose giving 40% inhibition of phenylephrine-induced urethral pressure ΔAUC, read-out: ID40
Experimental: The present Test Example was carried out by partially modifying the technique reported as a testing system for evaluating an urethral resistance-reducing action (European Journal of Pharmacology, 679, 127-131 (2012)). Male Wistar rats (Charles River Laboratories Japan, Inc.) were anesthetized with urethane (1.2 g/kg ip), and placed in a supine position. The lower abdominal portion was midline-incised, and thus, the bladder was exposed. The bladder apex was incised, a microchip pressure transducer catheter (3.5 Fr, Millar) was inserted into the inside of the urethra, and then placed therein. In addition, a cannula for administration of a drug was placed into the femoral vein. After stabilization of the urethral pressure, phenylephrine hydrochloride (Sigma-Aldrich, 30 μg/kg) was administered intravenously to induce an increase in the urethral pressure. At an interval of about 30 minutes, this operation was repeated twice or more to confirm the stability of the reaction of a phenylephrine hydrochloride-induced increase in the urethral pressure. Thereafter, a test compound (dissolved in 20% dimethyl acetamide, 10% Cremophor (registered trademark) and 70% physiological saline) was intravenously administered, and then 5 minutes later, phenylephrine hydrochloride was administered. The procedure of administration of the test compound and administration of phenylephrine hydrochloride was repeated at an interval of about 30 minutes, and 3 to 5 doses of the test compound was evaluated (the test compound was administered at increasing doses). The data of reaction was introduced into a personal computer through PowerLab (registered trademark) (ADInstruments, Inc.), and analyzed with LabChart (registered trademark) (ADInstruments, Inc.). For the evaluation, the value of the area under the urethral pressure (mmHg·s) for one minute before and after administration of phenylephrine hydrochloride was determined to calculate the difference between before and after administration of phenylephrine hydrochloride (ΔAUC value). By taking the ΔAUC value obtained before administering the test compound as 100%, the ratio (reaction rate) of the ΔAUC value of the test compound at each dose was calculated. The rate at which the obtained reaction rate becomes 60% (40% as an inhibition rate) was defined as ID40, and the ID40 values of the test compounds were calculated by non-linear regression.

Sequence of human MC3 receptor (P41968 whole entry): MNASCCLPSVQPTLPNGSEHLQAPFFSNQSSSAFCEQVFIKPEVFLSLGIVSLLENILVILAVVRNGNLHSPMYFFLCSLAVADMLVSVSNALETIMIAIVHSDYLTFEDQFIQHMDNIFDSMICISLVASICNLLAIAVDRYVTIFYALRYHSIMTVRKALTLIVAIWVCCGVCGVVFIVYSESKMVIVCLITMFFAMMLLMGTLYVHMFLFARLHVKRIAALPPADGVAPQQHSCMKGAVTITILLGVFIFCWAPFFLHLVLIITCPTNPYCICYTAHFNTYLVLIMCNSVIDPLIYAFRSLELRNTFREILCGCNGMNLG

SMILES | EC50 (human MC3 receptor) | minimal effective dose [1] | EC50 (human MC4 receptor) | ED40 (Male Wistar rats)
Cc1cc(C)c(C[C@@H](C(=O)O)N2CCN(C(=O)[C@@H]3CN(C(C)(C)C)C[C@H]3c3ccc(Cl)cc3F)[C@@H](C)C2)c(C)c1 [Example 89] | 0.78 µM | 0.1 mg/kg | 0.003 µM | 0.024 mg/kg
Cc1ccc(C[C@@H](C(=O)O)N2CCN(C(=O)[C@@H]3CN(C4CCOCC4)C[C@H]3c3ccc(Cl)cc3F)[C@@H](C)C2)c(F)c1 [Example 87, (2S)-2-[(3S)-4-{[(3S,4R)-4-(4-chloro-2-fluorophenyl)-1-(tetrahydro-2H-pyran-4-yl)pyrrolidin-3-yl]carbonyl}-3-methylpiperazin-1-yl]-3-(2-fluoro-4-methylphenyl)propanoic acid dihydrochloride] | 0.92 µM | 0.1 mg/kg | 0.011 µM | 0.04 mg/kg
Cc1ccc(C[C@@H](C(=O)O)N2CCN(C(=O)[C@@H]3CN(C(C)(C)C)C[C@H]3c3ccc(Cl)cc3F)[C@@H](C)C2)cc1 [Example 11] | 3.7 µM | 0.3 mg/kg | 0.017 µM | 0.088 mg/kg
CCC[C@H]1CN([C@@H](Cc2ccc3ccccc3c2)C(=O)O)CCN1C(=O)[C@@H]1CN(C(C)(C)C)C[C@H]1c1ccc(F)cc1F [Example 9] | 0.91 µM | 3 mg/kg | 0.0032 µM | 0.047 mg/kg
Cc1ccc(C[C@@H](C(=O)O)N2CCN(C(=O)[C@@H]3CN(C(C)(C)C)C[C@H]3c3ccc(Cl)cc3F)[C@@H](C)C2)c(F)c1 [Example 4, (2S)-2-[(3S)-4-{[(3S,4R)-1-tert-butyl-4-(4-chloro-2-fluorophenyl)pyrrolidin-3-yl]carbonyl}-3-methylpiperazin-1-yl]-3-(2-fluoro-4-methylphenyl)propanoic acid dihydrochloride] | 0.18 µM | 0.03 mg/kg | 0.0015 µM | 0.0094 mg/kg
C[C@H]1CN([C@@H](Cc2ccc3c(c2)CCC3)C(=O)O)CCN1C(=O)[C@@H]1CN(C(C)(C)C)C[C@H]1c1ccc(F)cc1F [Example 5, (2S)-2-[(3S)-4-{[(3S,4R)-1-tert-butyl-4-(2,4-difluorophenyl)pyrrolidin-3-yl]carbonyl}-3-methylpiperazin-1-yl]-3-(2,3-dihydro-1H-inden-5-yl)propanoic acid dihydrochloride] | 4.2 µM | 0.3 mg/kg | 0.025 µM | 0.13 mg/kg
Cc1cc(C)c(C[C@@H](C(=O)O)N2CCN(C(=O)[C@@H]3CN(C4CCOCC4)C[C@H]3c3ccc(Cl)cc3F)[C@@H](C)C2)c(F)c1 [Example 88] | 0.88 µM | 0.1 mg/kg | 0.012 µM | 0.04 mg/kg
Cc1cc(F)c(C[C@@H](C(=O)O)N2CCN(C(=O)[C@@H]3CN(C(C)(C)C)C[C@H]3c3ccc(Cl)cc3F)[C@@H](C)C2)c(F)c1 [Example 76] | 0.33 µM | 0.03 mg/kg | 0.00096 µM | 0.0047 mg/kg
